{"source": "patent US20250135006A1", "about": "“AMPHIPHILIC TLR7/8 ADJUVANTS AND USES THEREOF” (Pfizer Inc., priority 2023, published 2025)", "key": {"[1]": {"assay": "Lymph node localization of AMP adjuvants in female BALB/c mice (LC-MS)", "type": "in vivo", "conditions": "mouse, 2 nmol intramuscular; for concentration at 4 h: 4 h post injection; for concentration at 48 h: 48 h post injection", "method": "Test compounds were prepared at a concentration of 40 uM in phosphate-buffered saline (pH 7.4)+0.1% polysorbate 80, and 50 uL (2 nmol) of each was administered by intramuscular injection into the right hind leg muscle (gastrocnemius) of female BALB/c mice. Lymph nodes (popliteal, inguinal) were collected from 5 mice per group at 4 h and 48 h post injection, snap frozen in liquid nitrogen, and stored at −80C until analysis. Blood was also collected via cardiac puncture at 4 h and 48 h post injection and centrifuged in EDTA-coated tubes to yield plasma which was stored at −80C until analysis. AMP adjuvant concentrations in each sample were quantified by liquid chromatography-mass spectrometry (LC-MS).\nA standard curve containing the test compound was prepared in control mouse plasma before extraction with protein precipitation. Muscle samples were weighed and diluted in 4× 60:40 Isopropanol (IPA):Water. Lymph node samples were assumed to be 1 mg and were diluted 50× in […] 60:40 IPA:Water. Zirconium beads were added to tissue samples, followed by shaking in a bead beater to yield tissue homogenate. For plasma analysis, 20 ml of test sample or standard was added followed by 120 ml of acetonitrile containing internal standard (Simvastatin at 300 ng/ml). Tissue homogenate was prepared for analysis using a mixed matrix approach where test tissue samples (20 ml) were matrix matched with control plasma, and a plasma standard curve was matrixed matched with control mouse tissue. Internal standard was added as described above. Samples were vortexed for 1 min, then centrifuged at 3000 rpm for 5 min. 50 ml of supernatant was removed and transferred to a clean 96 well block, 150 ml of 0.1% formic acid in water was added, block was vortexed, centrifuged and 15 ml was injected on the LC/MS for analysis.\nAn initial mobile phase composition of 5% B was ramped to 95% in 2.0 minutes, held at 95% for 0.3 minutes, and then returned to initial 5% B for 0.3 minutes re-equilibration. The total analysis time for each sample was 3 minutes.\nData was collected on an AB Sciex API6500 (QTRAP) mass spectrometer using positive Turbo IonSpray™ electrospray ionization (ESI) and multiple reaction monitoring (MRM) mode. Typical source conditions, heated capillary temperature, gas1, gas2, and curtain gas were set at 600C, 50, 50, and 10 respectively. Transitions for Compound 1, Compound 2, and internal standard Simvastatin were m/z 1129® 923 for Compound 1, m/z 1172® 956 for Compound 2 and m/z 419® 285 for internal standard Simvastatin respectively. Data acquisition and processing was carried out with Analyst software version 1.7."}, "S. pneumoniae serotype 3": {"test_system": "S. pneumoniae serotype 3", "type": "in vivo, female Swiss-Webster mice", "conditions": "mouse"}, "[2]": {"conditions": "inguinal lymph node, read-out: concentration in the inguinal lymph node"}, "[3]": {"conditions": "plasma, read-out: concentration in plasma"}, "[4]": {"conditions": "popliteal lymph node, read-out: concentration in the popliteal lymph node"}}, "note": "Like-named read-outs stand apart in the source and are kept apart here."}
{"smiles": "CCCCc1nc2c(N)nc3cc(CCCN4CCN(C(=O)CCOCCOCCOCCOCCOCCOCCOCCOCCOCCOCCOCCOCCOCCOCCOCCOCCOCCOCCOCCOCCOCCOCCOCCOCCNC(=O)CCOCCOCCOCCOCCNC(=O)CCCOc5c(C)c(C)c6c(c5C)CC[C@@](C)(CCC[C@H](C)CCC[C@H](C)CCCC(C)C)O6)CC4)ccc3c2n1CC(C)(CO)CO", "note": "[Compound 2, N-{75-[4-(3-{4-amino-2-butyl-1-[3-hydroxy-2-(hydroxymethyl)-2-methylpropyl]-1H-imidazo[4,5-c]quinolin-7-yl}propyl)piperazin-1-yl]-75-oxo-3,6,9,12,15,18,21,24,27,30,33,36,39,42,45,48,51,54,57,60,63,66,69,72-tetracosaoxapentaheptacont-1-yl}-17-oxo-20-({(2R)-2,5,7,8-tetramethyl-2-[(4R,8R)-4,8,12-trimethyltridecyl]-3,4-dihydro-2H-chromen-6-yl}oxy)-4,7,10,13-tetraoxa-16-azaicosan-1-amide]", "values": [{"measurement": "concentration at 4 h", "setting": "[1]; [2]", "value": "16600 ± 6920", "unit": "ng/g"}, {"measurement": "concentration at 48 h", "setting": "[1]; [2]", "value": "17000 ± 3320", "unit": "ng/g"}, {"measurement": "concentration at 4 h", "setting": "[1]; [3]", "value": "1100 ± 305", "unit": "ng/mL"}, {"measurement": "concentration at 48 h", "setting": "[1]; [3]", "value": "< 25", "unit": "ng/mL"}, {"measurement": "concentration at 4 h", "setting": "[1]; [4]", "value": "35300 ± 16800", "unit": "ng/g"}, {"measurement": "concentration at 48 h", "setting": "[1]; [4]", "value": "23200 ± 7820", "unit": "ng/g"}, {"measurement": "OPA geometric mean titers (GMT)", "setting": "S. pneumoniae serotype 3; 0.1 μg S. pneumoniae serotype 3-CRM197 antigen with adjuvant (2 nmol; AlPO4 100 μg), IM weeks 0 and 3, sera week 5", "value": 610}, {"measurement": "OPA geometric mean titers compared with reference adjuvants", "setting": "S. pneumoniae serotype 3; S. pneumoniae serotype 3 antigen, versus aluminum phosphate and free TLR 7/8 agonist", "value": "higher average OPA geometric mean titers than aluminum phosphate, as well as the free TLR 7/8 agonist molecule"}]}
